PMC8286829, “Identifying SARS-CoV-2 antiviral compounds by screening for small molecule inhibitors of nsp14/nsp10 exoribonuclease” (Biochemical Journal, 2021)
pIC50: −log10 of the molar value.

Target: T1, nsp10–14 fusion protein (Severe acute respiratory syndrome coronavirus 2, UniProt P0DTD1)
T1 construct: gene rep; with Non-structural protein 10
Assay: biochemical

## O=C1C=C2C(=CCOC2O)O1 (stereo not shown) [patulin]
  pIC50: 5.74
